Legend:
HeLa [1] = assay: Acridine orange/ethidium bromide double staining, quantification of viable, apoptotic and necrotic cells; format: cell-based, human
Description: (§1) HeLa, 9 μM] at various time points. Each experiment included a set of untreated control cells (Media with DMSO alone). Double staining with acridine orange and ethidium bromide and consequently fluorescent microscopic analysis is an established method by which to distinguish between viable, necrotic and apoptotic cells. […] Following treatment, the cells were pelleted, washed twice in 1× PBS and resuspended in 50 μL 1× PBS. 1 μL of dye mixture (1 part 100 μg/mL acridine orange in PBS and 1 part 100 μg/mL ethidium bromide in PBS) was added to 10 μL of cell suspension and the entire volume was placed on a clean microscope slide. Cells were examined by fluorescence microscopy using the fluorescein filter (BX41, Olympus, Melville, NY, USA) and were distinguished via the morphological aspect of chromatin condensation in stained nuclei as previously established. A minimum of 200 cells were counted per sample and the percentage of cells from each population (viable, live apoptotic, dead apoptotic, necrotic) was calculated.

CaSki [2] = assay: as above; format: cell-based, human
Description: as §1

HPV16E7 = assay: Quantitative real-time PCR of viral oncogene mRNA in CaSki cells; format: cell-based, HPV16; settings: 24 h
Description: (§2) RNA extraction was performed using the Qiagen RNeasy® Mini Kit (Qiagen, Valencia, CA, USA). According to the manufacturer’s instructions, treated HeLa and CaSki cells were lysed using Buffer RLT (supplemented with β-mercaptoethanol) and centrifuged for 3 min at maximum speed. 70% ethanol was added to the lysate and placed in an RNeasy Mini spin column and spun at ≥8000× g for 15 s. Flow-through was discarded and the pellet was subjected to a series of wash steps using buffers RW1 and RPE and subsequent RNA elution. On-column RNase-Free DNase (Qiagen) treatment was incorporated into the extraction protocol to eliminate […]. Concentration and purity of extracted RNA was measured spectrophotometrically using NanoDrop 1000 (Thermo Fisher Scientific, Wilmington, DE, USA). Two μg of total RNA per 20 μL reaction was used for complementary DNA (cDNA) synthesis using a High Capacity RNA-to-cDNA kit (Applied Biosystems, Life Technologies, Foster City, CA, USA). Appropriate volumes of RNA sample were added to 10 μL 2XRT Buffer and 1 μL 20X RT Enzyme Mix and the total volume was adjusted to 20 μL using nuclease-free water. Reverse transcription was performed on the samples using the following conditions; 37 °C for 60 min and 95 °C for 5 min. The sequences used to design the primers and TaqMan® probes were obtained from previous publications, synthesized by Applied Biosystems and optimized to amplify the HPV16 and HPV18 E6 and E7 regions (sequences listed in Table 2) using the StepOnePlus™ Real-Time PCR system (Applied Biosystems). The optimized concentrations of the primers and probes used were […] respectively. Human VIC®-MGB ACTB (β-actin) was used as an endogenous control for internal normalisation and relative gene expression quantification. Each reaction was run in duplicates and used to calculate relative gene expression using the 2^−∆∆CT method. Expression is reported as fold change in the level of mRNA of treated cells relative to untreated cells, normalised to β-actin expression.

HPV16E6 = assay: as above; format: cell-based, HPV16; settings: 24 h
Description: as §2

HeLa [3] = assay: MTT anti-proliferative (time-dependent) assay, 24, 48 and 72 h; format: cell-based, human
Description: (§3) HeLa, CaSki and MRC9 cells were plated in triplicate wells in 96-well flat-bottomed tissue culture plates (Nunc, Roskilde, Denmark) with 10^5 cells per mL in 100 μL culture media with working concentrations of diarylpentanoid treatment ranging from 1.6 to 100 μM. Control-treated wells contained cells incubated in media with equal volumes of DMSO (0.2%). Cells were treated for 72 h for dose-dependent cytotoxicity assays and at 24, 48 and 72 h for anti-proliferative (time-dependent) assays. In order to assess cell viability and anti-proliferative activity after diarylpentanoid treatment, the colorimetric 3-(4,5-dimethylthiazol-2-yl)-2,5-diphenyltetrazolium bromide (MTT) assay was performed as previously described with modifications. The media was aspirated and cells were incubated in 100 µL complete medium with 0.5 mg/mL MTT solution for 4 h in the dark to allow metabolism of MTT by cellular mitochondrial dehydrogenases. The excess MTT was aspirated and the formazan crystals formed were dissolved by the addition of 100 µL of DMSO. The absorbance of dark blue formazan was read at 570/650 nm wavelengths using a microplate reader (Bio-Rad Benchmark Plus Microplate Spectrophotometer, Hercules, CA, USA). Triplicate absorbance values were averaged and the effect of the compounds on growth inhibition was assessed as percentage cell viability as follows: (1) Percentage cell viability =Absorbance of Test − Absorbance of Blank (media only)/Absorbance of Control − Absorbance of Blank (media only) × 100 where, absorbance = optical density of sample, O.D.; control = untreated sample; test = treated sample.
(§4) An independent set of vehicle-treated (DMSO only) controls were included in the anti-proliferative assays to assess the proliferation of untreated cancer cells over 24, 48 and 72 h. As such, the cell viability at 24 h was used as a baseline to measure proliferation rate at 48 and 72 h. (2) Percentage cell viability = […]/Absorbance of Control (24 h) × Absorbance of Blank (media only) × 100

CaSki [4] = assay: as above; format: cell-based, human; settings: for cell viability: 3.1–100 μM
Description: as §3, §4

[5] = tested on: C4-2 prostate cancer cells; set-up: method as in PMID 21796654; settings: cited from earlier work

With `O=C(C=Cc1ccccc1O)C=Cc1ccccc1O` [MS17, 1,5-bis(2-hydroxyphenyl)-1,4-pentadiene-3-one] the early apoptotic cells (HeLa [1]; 3 µM, 24 h) was 40%, the early apoptotic cells (HeLa [1]; 3 µM, 48 h) was 50% and the necrotic cells (HeLa [1]; 3 µM, throughout the treatment period (24 and 48 h)) was “approximately 10%”. For the same compound, the early apoptotic cells (HeLa [1]; 6 µM, 24 h) was 60%, the early apoptotic cells (HeLa [1]; 6 µM, 48 h) was 30% and the necrotic cells (HeLa [1]; 6 µM, throughout the treatment period (24 and 48 h)) was “approximately 25%”. For the same compound, the early apoptotic cells (HeLa [1]; 9 µM, 24 h) was 50%, the necrotic cells (HeLa [1]; 9 µM, 24 h) was 40% and the early apoptotic cells (HeLa [1]; 9 µM, 48 h) was 10%. The necrotic cells (HeLa [1]; 9 µM, 48 h) was 50%, the viable cells (HeLa [1]; 24 h, end of dose-dependent decrease (3–9 µM)) was “less than 10%” and the viable cells (HeLa [1]; 48 h, with increasing treatment dose (3–9 µM)) was “less than 5%”. The late apoptotic cells (HeLa [1]; all treatment doses, 24 h) was no more than 10%, the early apoptotic cells (CaSki [2]; 2 µM, 24 h) was 10% and the early apoptotic cells (CaSki [2]; 2 µM, 48 h) was 20%. For the same compound, the early apoptotic cells (CaSki [2]; 4 µM, 24 h) was 85%, the early apoptotic cells (CaSki [2]; 4 μM, 48 h) was 75% and the early apoptotic cells (CaSki [2]; 6 µM, 24 h) was 55%. For the same compound, the necrotic cells (CaSki [2]; 6 µM, 24 h) was 30%, the early apoptotic cells (CaSki [2]; 6 µM, 48 h) was 30% and the necrotic cells (CaSki [2]; 6 µM, 48 h) was 50%. For the same compound, the necrotic cells (CaSki [2]; 2 and 4 µM, 24 and 48 h) was ~ 10%, the viable cells (CaSki [2]; 24 h, end of dose-dependent decrease (2–6 µM)) was “less than 5%” and the viable cells (CaSki [2]; 48 h, with increasing treatment dose (2–6 µM)) was “less than 5%”. The “inhibition of E7 oncogene expression” value (HPV16E7; 2 μM and 4 μM) was “did not show significant inhibition”, the “decrease in HPV16E7 expression” value (HPV16E7; 6 μM, vs untreated) was 3 fold and the “inhibition of E6 oncogene expression” value (HPV16E6; 2 μM and 4 μM) was “did not show significant inhibition”. The “decrease in HPV16E6 expression” value (HPV16E6; 6 μM, vs untreated) was 3 fold, the “dosage from which reduction in cell viability was significantly higher at 48 and 72 h than at 24 h” value (HeLa [3]) was 6.3 µM and the cell viability (HeLa [3]; 6.3 μM onwards, 24 h) was 34%. The cell growth (HeLa [3]; 6.3 μM onwards, 48 h) was 12%, the cell growth (HeLa [3]; 6.3 μM onwards, 72 h) was 5% and the “dosage from which reduction in cell viability was significantly higher at 48 and 72 h than at 24 h” value (CaSki [4]) was 3.1 µM. For the same compound, the cell growth (CaSki [4]; 12.5 μM onwards, 24 h) was 43%, the cell viability (CaSki [4]; 48 h) was 22% and the cell viability (CaSki [4]; 72 h) was 9%. The “concentration causing significant cell death” value [5] was “more than 2.5 μM”.

— publication PMC6331910, “The Curcumin Analogue 1,5-Bis(2-hydroxyphenyl)-1,4-pentadiene-3-one Induces Apoptosis and Downregulates E6 and E7 Oncogene Expression in HPV16 and HPV18-Infected Cervical Cancer Cells” (Molecules, 2015)
